Usually IC50 stands for the concentration that gives 50% inhibition. For orientation: Ki means the equilibrium dissociation constant of an inhibitor or competing ligand from its target.

The source of these data is ChEMBL document CHEMBL5150027, “The inhibition of monoamine oxidase by 2H-1,4-benzothiazin-3(4H)-ones” (Bioorg Med Chem Lett, 2022).

In test [1] the target is T1, Amine oxidase [flavin-containing] B (Homo sapiens, UniProt P27338).
T1 sequence (P27338 whole entry): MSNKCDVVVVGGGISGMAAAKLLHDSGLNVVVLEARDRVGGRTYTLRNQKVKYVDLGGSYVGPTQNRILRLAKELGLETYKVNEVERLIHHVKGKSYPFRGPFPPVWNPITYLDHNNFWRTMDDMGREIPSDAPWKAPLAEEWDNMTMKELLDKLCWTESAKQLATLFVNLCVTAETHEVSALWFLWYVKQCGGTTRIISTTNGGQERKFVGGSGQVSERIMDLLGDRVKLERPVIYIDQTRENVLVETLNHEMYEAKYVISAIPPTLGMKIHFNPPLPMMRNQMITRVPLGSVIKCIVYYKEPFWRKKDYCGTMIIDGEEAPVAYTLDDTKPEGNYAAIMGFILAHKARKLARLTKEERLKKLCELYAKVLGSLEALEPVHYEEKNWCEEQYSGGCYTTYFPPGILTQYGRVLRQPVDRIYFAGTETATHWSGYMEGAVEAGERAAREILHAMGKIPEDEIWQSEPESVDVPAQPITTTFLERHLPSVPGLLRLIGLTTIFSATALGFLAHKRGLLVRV

Test [2] has as its target T2, Amine oxidase [flavin-containing] A (Homo sapiens, UniProt P21397).
T2 sequence (P21397 whole entry): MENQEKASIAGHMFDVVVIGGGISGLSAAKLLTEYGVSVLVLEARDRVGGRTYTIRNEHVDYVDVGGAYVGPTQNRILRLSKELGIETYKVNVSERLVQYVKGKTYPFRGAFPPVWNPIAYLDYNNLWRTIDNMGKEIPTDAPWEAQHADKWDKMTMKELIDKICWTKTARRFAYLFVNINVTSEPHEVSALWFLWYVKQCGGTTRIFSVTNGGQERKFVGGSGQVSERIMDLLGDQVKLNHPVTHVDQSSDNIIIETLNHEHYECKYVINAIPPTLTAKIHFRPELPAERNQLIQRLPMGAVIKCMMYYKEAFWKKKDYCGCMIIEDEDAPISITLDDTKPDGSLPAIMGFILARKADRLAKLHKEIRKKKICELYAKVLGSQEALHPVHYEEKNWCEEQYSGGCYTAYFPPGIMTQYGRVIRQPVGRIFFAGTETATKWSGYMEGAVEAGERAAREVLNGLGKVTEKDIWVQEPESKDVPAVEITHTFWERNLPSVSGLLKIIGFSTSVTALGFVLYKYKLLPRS
Description: Inhibition of recombinant human MAO-A using kynuramine as substrate assessed as inhibition of 4-hydroxyquinoline formation incubated for 20 mins by fluorescence spectrophotometric analysis.

Test [3] concerns the target T1, Amine oxidase [flavin-containing] B. The test can be described thus: Competitive inhibition of recombinant human MAO-B using kynuramine as substrate assessed as enzyme-inhibitor dissociation constant at varying substrate concentration by Lineweaver-burk plot analysis.
The target in another test is D-amino-acid oxidase (Sus scrofa, UniProt P00371). Description: Inhibition of porcine kidney DAAO using D-serine as substrate assessed as H2O2 formation by amplex red and peroxidase-coupled continuous fluorescence spectrophotometric analysis.
Sequence of D-amino-acid oxidase (P00371 whole entry): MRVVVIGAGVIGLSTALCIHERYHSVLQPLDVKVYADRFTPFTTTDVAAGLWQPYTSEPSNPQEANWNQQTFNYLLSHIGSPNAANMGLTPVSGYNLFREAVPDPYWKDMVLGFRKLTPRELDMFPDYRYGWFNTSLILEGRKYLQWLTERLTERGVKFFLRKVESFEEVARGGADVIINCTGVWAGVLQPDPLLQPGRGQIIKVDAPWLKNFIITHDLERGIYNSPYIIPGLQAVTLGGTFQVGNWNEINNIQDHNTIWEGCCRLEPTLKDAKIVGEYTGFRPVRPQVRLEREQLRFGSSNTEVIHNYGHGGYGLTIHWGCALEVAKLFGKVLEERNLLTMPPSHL

Take `COc1ccc2c(c1)SCC(=O)N2`: the IC50 turned out to be 42.6 µM in test [1] and 21.1 µM in test [2].

For `O=C1CSc2cc(OCCc3ccccc3)ccc2N1`, the results for the IC50 in test [1] and in test [2] were 0.167 µM and 13.1 µM, respectively.

For the compound `N#Cc1ccc(COc2ccc3c(c2)SCC(=O)N3)cc1`, the values for the IC50 (in test [1]; in test [2]; at D-amino-acid oxidase) were 0.0096 µM, 0.714 µM and 47.5 µM, respectively. Besides, in test [3], the inhibitory constant (Ki) stood at 0.0067 µM.

As for `O=C1CSc2cc(OCc3ccc(Br)cc3)ccc2N1`, the concentration for half-maximal inhibition (IC50) in test [1] came out at 0.0041 µM; in test [2] it was 15.6 µM.

Consider `O=C1CSc2cc(OCC3CCCCC3)ccc2N1`, for which the IC50 in test [1] amounted to 0.024 µM; in test [2], 1.17 µM.

With `O=C1CSc2cc(OCc3ccccc3)ccc2N1`, the IC50 in test [1] came to 0.071 µM; in test [2] it was 8.06 µM.

On to `O=C1CSc2cc(O)ccc2N1`, for which the IC50 in test [1] is 20 µM; in test [2], 19.2 µM; on D-amino-acid oxidase it was 4.2 µM.

Consider `O=C1CSc2cc(OCCCc3ccccc3)ccc2N1`, for which the IC50 came to 0.02 µM in test [1] and 96.8 µM in test [2].

On to `O=C1CSc2cc(OCc3ccc(Cl)cc3)ccc2N1`, for which the IC50 was 0.0027 µM in test [1], 24.4 µM in test [2] and 73.2 µM on D-amino-acid oxidase.

Regarding `CCCOc1ccc2c(c1)SCC(=O)N2`, the IC50 turned out to be 2.87 µM in test [1] and 6.51 µM in test [2].

In test [1], `Cc1ccc(COc2ccc3c(c2)SCC(=O)N3)cc1` showed an IC50 of 0.0082 µM.
